Reference: US10865216B2, “Tricyclic Gyrase inhibitors” (MERCK SHARP & DOHME CORP., priority 2012, dated 2020)
In brackets after ≈: the same amount, converted by molar mass. Read-outs that look alike come from different tables or passages of the source.

Experiments:
S. aureus ATCC 13709 = experiment: MIC, S. aureus ATCC 13709; assay type: cell-based; conditions: for MIC: Staphylococcus aureus
E. coli ATCC 25922 = experiment: MIC, E. coli ATCC 25922; assay type: cell-based; conditions: for MIC: Escherichia coli
[1] = S. aureus, Alamar Blue read after overnight incubation at 35° C.
[2] = E. coli, Alamar Blue read after overnight incubation at 35° C.
[3] = ATCC13709, S. aureus, Alamar Blue read after overnight incubation at 35° C., read-out: MIC Sa
[4] = ATCC25922, E. coli, Alamar Blue read after overnight incubation at 35° C., read-out: MIC Ec

SMILES | MIC Sa (S. aureus ATCC 13709; [1]) [µg/mL] | MIC Ec (E. coli ATCC 25922; [2]) [µg/mL] | further results
CNc1cc(F)cc2c1[nH]c1nc(Oc3cnc(N)nc3)nc(N3CC4C(CN)C4C3)c12 (centres unmarked) [Compound 4.188] | ≤0.5 | 8 (≈ 18.4 µM) | 
CCOC(=O)c1csc(Nc2nc(N3C[C@H]4CC3C[C@H]4N)c3c(n2)[nH]c2c(NC)cc(F)cc23)n1 |  |  | SA MIC (S. aureus ATCC 13709; Table 13, L = NH): ≤ 0.5 µg/mL; EC MIC (E. coli ATCC 25922; Table 13, L = NH): 1 µg/mL
CNc1cccc2c1[nH]c1nc(Oc3cncnc3)cc(N3CCC(N)CC3)c12 [Compound 3.64] |  |  | MIC (S. aureus ATCC 13709; [3]): 16 µg/mL (≈ 41.1 µM); MIC (E. coli ATCC 25922; [4]): 64 µg/mL (≈ 164 µM)
CNc1cc(F)cc2c1[nH]c1nc(Oc3cnc(N)nc3)nc(N3CCCC(N)C3)c12 (centres unmarked) [Compound 4.180] | 1 (≈ 2.36 µM) | 8 (≈ 18.9 µM) | 
CNc1cccc2c1[nH]c1nc(Sc3cnc4ccc[n+]([O-])c4c3)nc(N3CC(O)C3)c12 [Compound 1.17] |  |  | MIC (S. aureus ATCC 13709; [3]): ≤ 0.5 µg/mL; MIC (E. coli ATCC 25922; [4]): > 64 µg/mL
CNc1cc(F)cc2c1[nH]c1nc(Oc3cnc(C)nc3)nc(N3CC4CCC(CN)C4C3)c12 (centres unmarked) [Compound 4.112] | ≤0.5 | 1 (≈ 2.16 µM) | 
CNc1cc(F)cc2c1[nH]c1nc(Oc3cnc(N)nc3)nc(N3CC4C(N)C4C3)c12 (centres unmarked) [Compound 4.172] | ≤0.5 | ≤0.5 | 
CNc1cc(F)cc2c1[nH]c1nc(Oc3cncnc3)nc(N3CC4CCC(N)C4C3)c12 (centres unmarked) [Compound 4.016] | ≤0.5 | 1 (≈ 2.3 µM) | 
CNc1cc(F)cc2c1[nH]c1nc(Oc3cnc4ccnn4c3)nc(N3CC4(CCC4N)C3)c12 (centres unmarked) [Compound 10.56] |  |  | MIC Sa (S. aureus ATCC 13709; Table 18, Sa): ≤ 0.5 µg/mL; MIC Ec (E. coli ATCC 25922; Table 18, Ec): ≤ 0.5 µg/mL
CNc1cc(F)cc2c1[nH]c1nc(Oc3cncnc3)nc(N3CC4C(N)C4C3)c12 (centres unmarked) [Compound 4.010] | ≤0.5 | ≤0.5 | 
CCc1cc(F)cc2c1[nH]c1nc(Oc3cncnc3)nc(N3CC4CC(N)C4C3)c12 (centres unmarked) [Compound 2.5] | ≤0.5 | 2 (≈ 4.77 µM) | 
CNc1cc(F)c(F)c2c1[nH]c1nc(Oc3cnc4ccnn4c3)nc(N3C[C@H]4C[C@@H]3C[C@H]4N)c12 [Compound 10.21] |  |  | MIC Sa (S. aureus ATCC 13709; Table 18, Sa): ≤ 0.5 µg/mL; MIC Ec (E. coli ATCC 25922; Table 18, Ec): ≤ 0.5 µg/mL
CNc1cc(F)cc2c1[nH]c1nc(Oc3cnc(CN)nc3)nc(N3CCC4(CC[C@H]4N)C3)c12 (some centres unmarked) [Compound 10.105] |  |  | MIC Sa (S. aureus ATCC 13709; Table 18, Sa): ≤ 0.5 µg/mL; MIC Ec (E. coli ATCC 25922; Table 18, Ec): 1 µg/mL (≈ 2.16 µM)
CNc1cc(F)cc2c1[nH]c1nc(Oc3cncnc3)nc(N3C4CCC3CC(N)C4)c12 (centres unmarked) [Compound 4.025] | ≤0.5 | 2 (≈ 4.6 µM) | 
CNc1cc(F)cc2c1[nH]c1nc(Sc3nncs3)nc(N3C[C@H]4C[C@@H]3C[C@H]4N)c12 [Compound 10.11] |  |  | MIC Sa (S. aureus ATCC 13709; Table 18, Sa): ≤ 0.5 µg/mL; MIC Ec (E. coli ATCC 25922; Table 18, Ec): ≤ 0.5 µg/mL
CNc1cc(F)cc2c1[nH]c1nc(Oc3cncc(OC)c3)nc(N3CC4CC(N)C4C3)c12 (centres unmarked) [Compound 4.167] | ≤0.5 | ≤0.5 | 
CNc1cc(F)cc2c1[nH]c1nc(Oc3cnc(C)nc3)nc(N3CC4CCC(N)C4(C)C3)c12 (centres unmarked) [Compound 4.099] | ≤0.5 | 4 (≈ 8.65 µM) | 
CNc1cc(F)cc2c1[nH]c1nc(Oc3cncc(-c4cn[nH]c4)c3)nc(N3CC4C(N)C4C3)c12 (centres unmarked) [Compound 4.206] | ≤0.5 | 4 (≈ 8.48 µM) | 
CNc1cc(F)cc2c1[nH]c1nc(Oc3cnc4cc(C5CC5)nn4c3)nc(N3C[C@H]4C[C@@H]3C[C@H]4N)c12 [Compound 10.36] |  |  | MIC Sa (S. aureus ATCC 13709; Table 18, Sa): ≤ 0.5 µg/mL; MIC Ec (E. coli ATCC 25922; Table 18, Ec): ≤ 0.5 µg/mL
CNc1cc(F)cc2c1[nH]c1nc(Oc3cnc4c(C)cnn4c3)nc(N3C[C@H]4C[C@@H]3C[C@H]4N)c12 [Compound 10.19] |  |  | MIC Sa (S. aureus ATCC 13709; Table 18, Sa): ≤ 0.5 µg/mL; MIC Ec (E. coli ATCC 25922; Table 18, Ec): ≤ 0.5 µg/mL
CNc1cc(F)cc2c1[nH]c1nc(Oc3cnc(C)nc3)nc(N3CC(N)C(C(=O)NCCN4CCOCC4)C3)c12 (centres unmarked) [drawing 1823] |  |  | MIC (S. aureus ATCC 13709; ATCC13709, Table 16, new R4 substituents, read-out: SA MIC): 16 µg/mL (≈ 28.3 µM); MIC (E. coli ATCC 25922; ATCC25922, Table 16, new R4 substituents, EC8 not defined, read-out: EC8 MIC): > 16 µg/mL
CNc1cccc2c1[nH]c1nc(Oc3cncc(OC)c3)cc(N3CC4C(N)C4C3)c12 (centres unmarked) [Compound 3.35] |  |  | MIC (S. aureus ATCC 13709; [3]): ≤ 0.5 µg/mL; MIC (E. coli ATCC 25922; [4]): 1 µg/mL (≈ 2.4 µM)
CNc1cc(F)cc2c1[nH]c1nc(Oc3cnc(C)nc3)nc(N3CC(N)C(C(=O)OC)C3)c12 (centres unmarked) [Compound 4.437] |  |  | MIC (S. aureus ATCC 13709; [3]): ≤ 0.5 µg/mL; MIC (E. coli ATCC 25922; [4]): 1 µg/mL (≈ 2.14 µM)

More lines, main results first:

MIC Sa (S. aureus ATCC 13709; [1]) [µg/mL] | MIC Ec (E. coli ATCC 25922; [2]) [µg/mL] | SMILES | further results
2 (≈ 3.93 µM) | >16 | CNc1cc(F)cc2c1[nH]c1nc(Oc3cnc(NCC(O)CO)nc3)nc(N3C[C@H](N)C4(CC4)C3)c12 (some centres unmarked) [Compound 4.407] | 
≤0.5 | 1 (≈ 2.38 µM) | CNc1cc(F)cc2c1[nH]c1nc(Oc3cnc(C)nc3)nc(-c3cncc(F)c3)c12 [Compound 4.417] | 
8 (≈ 17.4 µM) | >16 | CNc1cc(F)cc2c1[nH]c1nc(Oc3cnc4[nH]cnc4c3)nc(N3CC4CC(N)C4C3)c12 (centres unmarked) [Compound 4.310] | 
≤0.5 | 1 (≈ 2.11 µM) | CNc1cc(F)cc2c1[nH]c1nc(Oc3cnc4ccoc4c3)nc(N3CC4CCC(N)C4C3)c12 (centres unmarked) [Compound 4.293] | 
≤0.5 | ≤0.5 | CNc1cc(F)cc2c1[nH]c1nc(Oc3ccc(C#N)nc3)nc(N3CC4(CCC4N)C3)c12 (centres unmarked) [Compound 4.333] | 
